# Measurements taken from PubChem BioAssay (NCI).
#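 Step 1: Grow cells in 96-well plates. Step 2: Expose to compound for 48 hours at 5 concentrations. Step 3: Interpolate endpoints linearly; if unreached, use highest concentration. The concentration for 50% growth inhibition is given as GI50. At the TGI there is no net growth.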
# Experiments:
# Assay in all cases: NCI-60 cell line screen, 48 h
# BT-549 breast = tested on: BT-549 breast
# SF-539 CNS = tested on: SF-539 CNS
# SN12C renal = tested on: SN12C renal
# RXF 393 renal = tested on: RXF 393 renal
# MCF7 breast = tested on: MCF7 breast
# MOLT-4 leukemia = tested on: MOLT-4 leukemia
# LOX IMVI melanoma = tested on: LOX IMVI melanoma
# SF-295 CNS = tested on: SF-295 CNS
# SW-620 colon = tested on: SW-620 colon
# NCI-H522 lung = tested on: NCI-H522 lung
# MDA-MB-231 breast = tested on: MDA-MB-231 breast
# SK-MEL-5 melanoma = tested on: SK-MEL-5 melanoma
# SK-OV-3 ovarian = tested on: SK-OV-3 ovarian
# SR leukemia = tested on: SR leukemia
# CCRF-CEM leukemia = tested on: CCRF-CEM leukemia
# NCI/ADR-RES ovarian = tested on: NCI/ADR-RES ovarian
# KM12 colon = tested on: KM12 colon
# SNB-19 CNS = tested on: SNB-19 CNS
# SK-MEL-2 melanoma = tested on: SK-MEL-2 melanoma
# U251 CNS = tested on: U251 CNS
# OVCAR-4 ovarian = tested on: OVCAR-4 ovarian
# NCI-H23 lung = tested on: NCI-H23 lung
# CAKI-1 renal = tested on: CAKI-1 renal
# NCI-H460 lung = tested on: NCI-H460 lung
# HS 578T breast = tested on: HS 578T breast
# OVCAR-8 ovarian = tested on: OVCAR-8 ovarian
# COLO 205 colon = tested on: COLO 205 colon
# EKVX NSCLC = tested on: EKVX NSCLC
# SNB-75 CNS = tested on: SNB-75 CNS
# MALME-3M melanoma = tested on: MALME-3M melanoma
# HOP-92 NSCLC = tested on: HOP-92 NSCLC
# OVCAR-3 ovarian = tested on: OVCAR-3 ovarian
# UACC-257 melanoma = tested on: UACC-257 melanoma
# K-562 leukemia = tested on: K-562 leukemia
# UACC-62 melanoma = tested on: UACC-62 melanoma
# UO-31 renal = tested on: UO-31 renal
# M14 melanoma = tested on: M14 melanoma
# DU-145 prostate = tested on: DU-145 prostate
# 786-0 renal = tested on: 786-0 renal
# A498 renal = tested on: A498 renal
# A549 NSCLC = tested on: A549 NSCLC
# SF-268 CNS = tested on: SF-268 CNS
# HCC-2998 colon = tested on: HCC-2998 colon
# PC-3 prostate = tested on: PC-3 prostate
# MDA-MB-435 = tested on: MDA-MB-435
# NCI-H226 lung = tested on: NCI-H226 lung
# HT29 colon = tested on: HT29 colon
# HCT-116 colon = tested on: HCT-116 colon
# ACHN renal = tested on: ACHN renal
# IGROV1 ovarian = tested on: IGROV1 ovarian
# HOP-62 NSCLC = tested on: HOP-62 NSCLC
# OVCAR-5 ovarian = tested on: OVCAR-5 ovarian
# SK-MEL-28 melanoma = tested on: SK-MEL-28 melanoma
# RPMI-8226 leukemia = tested on: RPMI-8226 leukemia
# HCT-15 colon = tested on: HCT-15 colon
# HL-60(TB) leukemia = tested on: HL-60(TB) leukemia
# TK-10 renal = tested on: TK-10 renal
# T-47D breast = tested on: T-47D breast
structure (smiles),measurement,setting,value
c1cc(N2CCCC2)c2nc(-c3[nH]ncc3Nc3ncnc4[nH]ccc34)[nH]c2c1,GI50,BT-549 breast,67.2 nM
same,TGI,BT-549 breast,736 nM
same,GI50,SF-539 CNS,20.6 nM
same,TGI,SF-539 CNS,256 nM
same,GI50,SN12C renal,54.3 nM
same,TGI,SN12C renal,793 nM
same,GI50,RXF 393 renal,22.8 nM
same,TGI,RXF 393 renal,92.9 nM
same,GI50,MCF7 breast,80.6 nM
same,TGI,MCF7 breast,677 nM
same,GI50,MOLT-4 leukemia,33.8 nM
same,TGI,MOLT-4 leukemia,4830 nM
same,GI50,LOX IMVI melanoma,25.4 nM
same,TGI,LOX IMVI melanoma,342 nM
same,GI50,SF-295 CNS,44.1 nM
same,TGI,SF-295 CNS,337 nM
same,GI50,SW-620 colon,68.4 nM
same,TGI,SW-620 colon,548 nM
same,GI50,NCI-H522 lung,87.3 nM
same,TGI,NCI-H522 lung,1120 nM
same,GI50,MDA-MB-231 breast,62.8 nM
same,TGI,MDA-MB-231 breast,418 nM
same,GI50,SK-MEL-5 melanoma,105 nM
same,TGI,SK-MEL-5 melanoma,424 nM
same,GI50,SK-OV-3 ovarian,27.6 nM
same,TGI,SK-OV-3 ovarian,586 nM
same,GI50,SR leukemia,36.2 nM
same,TGI,SR leukemia,26700 nM
same,GI50,CCRF-CEM leukemia,28 nM
same,TGI,CCRF-CEM leukemia,1310 nM
same,GI50,NCI/ADR-RES ovarian,141 nM
same,TGI,NCI/ADR-RES ovarian,1260 nM
same,GI50,KM12 colon,79.3 nM
same,TGI,KM12 colon,459 nM
same,GI50,SNB-19 CNS,96.2 nM
same,TGI,SNB-19 CNS,1580 nM
same,GI50,SK-MEL-2 melanoma,53 nM
same,TGI,SK-MEL-2 melanoma,292 nM
same,GI50,U251 CNS,47.4 nM
same,TGI,U251 CNS,838 nM
same,GI50,OVCAR-4 ovarian,146 nM
same,TGI,OVCAR-4 ovarian,1140 nM
same,GI50,NCI-H23 lung,69.4 nM
same,TGI,NCI-H23 lung,680 nM
same,GI50,CAKI-1 renal,22 nM
same,TGI,CAKI-1 renal,253 nM
same,GI50,NCI-H460 lung,90.8 nM
same,TGI,NCI-H460 lung,416 nM
same,TGI,HS 578T breast,77.1 nM
same,GI50,OVCAR-8 ovarian,84.7 nM
same,TGI,OVCAR-8 ovarian,1360 nM
same,GI50,COLO 205 colon,285 nM
same,TGI,COLO 205 colon,2030 nM
same,GI50,EKVX NSCLC,151 nM
same,TGI,EKVX NSCLC,1700 nM
same,TGI,SNB-75 CNS,348 nM
same,GI50,MALME-3M melanoma,160 nM
same,TGI,MALME-3M melanoma,800 nM
same,GI50,HOP-92 NSCLC,29.8 nM
same,TGI,HOP-92 NSCLC,99.9 nM
same,GI50,OVCAR-3 ovarian,44.1 nM
same,TGI,OVCAR-3 ovarian,663 nM
same,GI50,UACC-257 melanoma,150 nM
same,TGI,UACC-257 melanoma,1110 nM
same,GI50,K-562 leukemia,< 11.5 nM
same,TGI,K-562 leukemia,> 35000 nM
same,GI50,UACC-62 melanoma,55.4 nM
same,TGI,UACC-62 melanoma,196 nM
same,GI50,UO-31 renal,27.8 nM
same,TGI,UO-31 renal,267 nM
same,GI50,M14 melanoma,49.5 nM
same,TGI,M14 melanoma,483 nM
same,GI50,DU-145 prostate,85.3 nM
same,TGI,DU-145 prostate,777 nM
same,GI50,786-0 renal,34.1 nM
same,TGI,786-0 renal,560 nM
same,GI50,A498 renal,20.2 nM
same,TGI,A498 renal,55 nM
same,GI50,A549 NSCLC,80.6 nM
same,TGI,A549 NSCLC,455 nM
same,GI50,SF-268 CNS,108 nM
same,TGI,SF-268 CNS,569 nM
same,GI50,HCC-2998 colon,176 nM
same,TGI,HCC-2998 colon,942 nM
same,GI50,PC-3 prostate,26.1 nM
same,TGI,PC-3 prostate,446 nM
same,GI50,MDA-MB-435,94.4 nM
same,TGI,MDA-MB-435,511 nM
same,GI50,NCI-H226 lung,41 nM
same,TGI,NCI-H226 lung,204 nM
same,GI50,HT29 colon,371 nM
same,TGI,HT29 colon,3250 nM
same,GI50,HCT-116 colon,25.5 nM
same,TGI,HCT-116 colon,1610 nM
same,GI50,ACHN renal,30.2 nM
same,TGI,ACHN renal,679 nM
same,GI50,IGROV1 ovarian,39.8 nM
same,TGI,IGROV1 ovarian,239 nM
same,GI50,HOP-62 NSCLC,100 nM
same,TGI,HOP-62 NSCLC,2030 nM
same,GI50,OVCAR-5 ovarian,115 nM
same,TGI,OVCAR-5 ovarian,2200 nM
same,GI50,SK-MEL-28 melanoma,99.2 nM
same,TGI,SK-MEL-28 melanoma,575 nM
same,GI50,RPMI-8226 leukemia,254 nM
same,TGI,RPMI-8226 leukemia,1060 nM
same,GI50,HCT-15 colon,76.5 nM
same,TGI,HCT-15 colon,584 nM
same,GI50,HL-60(TB) leukemia,32.6 nM
same,TGI,HL-60(TB) leukemia,91.6 nM
same,GI50,TK-10 renal,323 nM
same,TGI,TK-10 renal,1380 nM
same,GI50,T-47D breast,139 nM
same,TGI,T-47D breast,5970 nM
